Literature values, collected in patent US8088918B2, “Noncardiotoxic pharmaceutical compounds” (Williamsburg Holdings LLC, priority 2004, dated 2012).

What was measured:
CYP2D6 = CYP2D6 (Homo sapiens, UniProt P10635); conditions: cited from earlier work
[1] = oral administration; cited from earlier work
[2] = preclinical and clinical studies; cited from earlier work
[3] = healthy volunteers, therapeutic plasma concentrations; cited from earlier work

Chain of CYP2D6 (P10635 whole entry): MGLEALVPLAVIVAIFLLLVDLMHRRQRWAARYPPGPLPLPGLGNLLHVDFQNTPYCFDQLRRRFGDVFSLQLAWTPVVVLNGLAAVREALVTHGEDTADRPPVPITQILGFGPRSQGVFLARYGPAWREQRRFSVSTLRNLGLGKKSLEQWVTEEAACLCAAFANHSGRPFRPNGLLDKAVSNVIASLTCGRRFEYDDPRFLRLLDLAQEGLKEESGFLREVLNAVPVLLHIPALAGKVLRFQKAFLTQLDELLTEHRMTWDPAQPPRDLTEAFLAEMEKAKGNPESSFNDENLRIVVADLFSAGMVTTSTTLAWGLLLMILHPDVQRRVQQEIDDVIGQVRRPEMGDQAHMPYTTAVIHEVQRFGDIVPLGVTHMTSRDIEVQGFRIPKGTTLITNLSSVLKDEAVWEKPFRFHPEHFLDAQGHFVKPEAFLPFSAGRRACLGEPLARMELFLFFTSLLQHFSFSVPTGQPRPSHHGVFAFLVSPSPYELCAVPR

Structure (SMILES) | metabolism by CYP2D6 to the hydroxymetabolite (CYP2D6) | systemic availability [1] | cardiotoxicity compared with imipramine [2] | increase in mean QTc [3] [ms]
C[N+](C)([O-])CCCN1c2ccccc2CCc2ccccc21 [imipramine-N-oxide, Imipramine-N-oxide] | abolished the metabolism of imipramine by CYP2D6 to the hydroxymetabolite | about 100% | significantly reduced | 
CC(CC(c1ccccc1)c1ccccc1)NC(C)(C)C (stereo not shown) [terodiline] |  |  |  | 23
